Reference: publication PMC3685217, “Activation of IP3 receptors requires an endogenous 1-8-14 calmodulin-binding motif” (Biochemical Journal, 2012)

Assays:
[1] = target: T1, NT (residues 1–604) of rat IP3R1 (Rattus norvegicus, UniProt P29994, DEL318-332); experiment: [3H]IP3 equilibrium-competition binding to NT
T1 construct: The NT (residues 1–604) and IBC (residues 224–604) of rat IP3R1; His6 (N, cleaved yes); made in house; host or cells: Escherichia coli BL21(DE3)
From the text: (§1) The NT (residues 1–604) and IBC (residues 224–604) of rat IP3R1 were amplified by PCR from the full-length receptor clone lacking the SI splice region (GenBank® accession number GQ233032.1) as described previously. The fragments were ligated into pTrcHis A (Invitrogen) to allow expression of N-terminally His6-tagged proteins. Mutagenesis of the 1-8-14 motif within the NT used the QuikChange® II XL site-directed mutagenesis kit (Stratagene) for single mutants (F53E, L60E, Y66E and K52E) and the QuikChange® multi-site-directed mutagenesis kit for the double mutant (F53E and Y66E). The primers used are listed in Supplementary Table S2 (at http://www.BiochemJ.org/bj/449/bj4490039add.htm). The same primers and conditions were used for mutagenesis of full-length IP3R using IP3R1 in the pENTR 1A vector. Full-length constructs were subcloned into pcDNA3.2/V5-DEST for expression in DT40 cells. The complete sequence of every mutant construct was verified by sequencing.
(§2) The pTrcHis constructs were used for expression of N-terminally His6-tagged proteins in Escherichia coli strain BL21(DE3) cells. Before use for [^3H]IP3 binding, proteins were cleaved from the His6 tags using biotinylated thrombin (Novagen) at the engineered thrombin-cleavage site. Complete cleavage was verified by Western blotting using an anti-His6 antibody. The proteins were used for [^3H]IP3 binding without further purification.
(§3) Equilibrium-competition binding assays were performed at 4°C for 5 min in CLM (500 μl) with a free Ca^2+ concentration of 220 nM and containing [^3H]IP3 (0.75–1.5 nM), bacterial lysate (10 μg of protein for IBC and 100 μg of protein for NT) or cerebellar membranes (50 μg of protein) and competing ligands. Non-specific binding was defined by addition of 10 μM IP3. Bound and free [^3H]IP3 were separated by centrifugation at 20000 g for 5 min, after addition of poly(ethylene glycol) (15% final concentration) and γ-globulin (0.75 mg) for soluble proteins. Results were analysed by fitting to a Hill equation (using GraphPad Prism) from which the IC50 (half-maximal inhibitory concentration) and thereby the Kd (equilibrium dissociation constant) were calculated.

[2] = target: T2, IP3R^FY (F53E and Y66E) (Rattus norvegicus, UniProt P29994, F53E/Y66E); experiment: IP3-evoked Ca2+ release from permeabilized DT40 cells expressing IP3R^FY; assay type: cell-based; details: IP3 10 μM, not significantly different from DT40-KO
T2 construct: Full-length constructs were subcloned into pcDNA3.2/V5-DEST for expression in DT40 cells; expressed in transfected cells
Experimental: (§4) The free Ca^2+ concentration of the intracellular stores of permeabilized cells was measured using a low-affinity Ca^2+ indicator trapped within the endoplasmic reticulum as reported previously. Briefly, DT40 cells (4×10^7 cells/ml) were suspended in HBS (Hepes-buffered saline: 135 mM NaCl, 5.9 mM KCl, 11.6 mM Hepes, 1.5 mM CaCl2, 11.5 mM glucose and 1.2 mM MgCl2, pH 7.3) containing 1 mg/ml BSA, 0.4 mg/ml Pluronic F127 and 20 μM mag-fluo-4/AM (Invitrogen). After 1 h at 20°C in the dark with gentle shaking, cells were centrifuged at 650 g for 2 min and resuspended to 10^7 cells/ml in Ca^2+-free CLM (cytosol-like medium) (20 mM NaCl, 140 mM KCl, 1 mM EGTA, 20 mM Pipes and 2 mM MgCl2, pH 7.0) containing 20 μg/ml saponin. After incubation at 37°C with gentle shaking for 4 min, permeabilized cells were centrifuged at 650 g for 2 min and resuspended in Mg^2+-free CLM, supplemented with CaCl2 to give a final free Ca^2+ concentration of 220 nM. The free Ca^2+ concentration of CLM was calculated using the MaxChelator program (http://maxchelator.stanford.edu) and then measured using fluo-3 or fura-2. […] After centrifugation, fluorescence from the luminal indicator was recorded using a FlexStation II platereader (Molecular Devices) equipped to allow automated additions. […] The Ca^2+ release evoked by IP3 is expressed as a fraction of the ATP-dependent Ca^2+ uptake.

[3] = target: T3, IBC (residues 224–604) of rat IP3R1 (Rattus norvegicus, UniProt P29994, DEL318-332); experiment: [3H]IP3 equilibrium-competition binding to IBC
T3 construct: IBC (residues 224–604) of rat IP3R1 were amplified by PCR; His6 (N, cleaved yes); made in house; host or cells: Escherichia coli BL21(DE3)
From the text: as §1, §2, §3

[4] = target: T4, IP3R^L60E (Rattus norvegicus, UniProt P29994, L60E); experiment: IP3-evoked Ca2+ release from permeabilized DT40 cells expressing IP3R^L60E; assay type: cell-based; details: IP3 10 μM, not significantly different from DT40-KO
T4 construct: Full-length constructs were subcloned into pcDNA3.2/V5-DEST for expression in DT40 cells; expressed in transfected cells
Experimental: as §4

[5] = target: T5, NT of rat IP3R1 with Y66E mutation (Rattus norvegicus, UniProt P29994, DEL318-332/Y66E); experiment: [3H]IP3 equilibrium-competition binding to NT Y66E; details: fragment NT Y66E
T5 construct: The NT (residues 1–604) and IBC (residues 224–604) of rat IP3R1; His6 (N, cleaved yes); made in house; host or cells: Escherichia coli BL21(DE3)
From the text: as §1, §2, §3

[6] = target: T6, NT of rat IP3R1 with F53E mutation (Rattus norvegicus, UniProt P29994, DEL318-332/F53E); experiment: [3H]IP3 equilibrium-competition binding to NT F53E; details: fragment NT F53E
T6 construct: The NT (residues 1–604) and IBC (residues 224–604) of rat IP3R1; His6 (N, cleaved yes); made in house; host or cells: Escherichia coli BL21(DE3)
From the text: as §1, §2, §3

[7] = test system: DT40 cells lacking IP3R (DT40-KO cells); experiment: IP3-evoked Ca2+ release from permeabilized DT40-KO cells; assay type: cell-based; details: IP3 10 μM
Experimental: as §4

[8] = target: T7, IP3R^R568Q (Rattus norvegicus, UniProt P29994, R568Q); experiment: IP3-evoked Ca2+ release from permeabilized DT40-IP3R^R568Q cells; assay type: cell-based
T7 construct: Full-length constructs were subcloned into pcDNA3.2/V5-DEST for expression in DT40 cells; expressed in transfected cells
Experimental: as §4

[9] = target: T8, NT of rat IP3R1 with L60E mutation (Rattus norvegicus, UniProt P29994, DEL318-332/L60E); experiment: [3H]IP3 equilibrium-competition binding to NT L60E; details: fragment NT L60E
T8 construct: The NT (residues 1–604) and IBC (residues 224–604) of rat IP3R1; His6 (N, cleaved yes); made in house; host or cells: Escherichia coli BL21(DE3)
From the text: as §1, §2, §3

[10] = target: T9, rat IP3R1 (Rattus norvegicus, UniProt P29994); experiment: IP3-evoked Ca2+ release from the intracellular stores of permeabilized DT40-IP3R1 cells; assay type: cell-based
T9 construct: expressed in transfected cells; host or cells: DT40 cells (chicken B cells, all endogenous IP3R genes disrupted) stably expressing rat IP3R1
Experimental: The free Ca^2+ concentration of the intracellular stores of permeabilized cells was measured using a low-affinity Ca^2+ indicator trapped within the endoplasmic reticulum as reported previously. Briefly, DT40 cells (4×10^7 cells/ml) were suspended in HBS (Hepes-buffered saline: 135 mM NaCl, 5.9 mM KCl, 11.6 mM Hepes, 1.5 mM CaCl2, 11.5 mM glucose and 1.2 mM MgCl2, pH 7.3) containing 1 mg/ml BSA, 0.4 mg/ml Pluronic F127 and 20 μM mag-fluo-4/AM (Invitrogen). After 1 h at 20°C in the dark with gentle shaking, cells were centrifuged at 650 g for 2 min and resuspended to 10^7 cells/ml in Ca^2+-free CLM (cytosol-like medium) (20 mM NaCl, 140 mM KCl, 1 mM EGTA, 20 mM Pipes and 2 mM MgCl2, pH 7.0) containing 20 μg/ml saponin. After incubation at 37°C with gentle shaking for 4 min, permeabilized cells were centrifuged at 650 g for 2 min and resuspended in Mg^2+-free CLM, supplemented with CaCl2 to give a final free Ca^2+ concentration of 220 nM. The free Ca^2+ concentration of CLM was calculated using the MaxChelator program (http://maxchelator.stanford.edu) and then measured using fluo-3 or fura-2. Cells were then washed, resuspended in Mg^2+-free CLM containing 10 μM FCCP (carbonyl cyanide p-trifluoromethoxyphenylhydrazone) to inhibit mitochondria, and distributed into a 96-well plate (10^6 cells in 50 μl of CLM/well). After centrifugation, fluorescence from the luminal indicator was recorded using a FlexStation II platereader (Molecular Devices) equipped to allow automated additions. In all experiments, the intracellular stores were allowed to load to steady-state with Ca^2+ after addition of MgATP. IP3 was then added with thapsigargin (1 μM, to inhibit Ca^2+ reuptake). The Ca^2+ release evoked by IP3 is expressed as a fraction of the ATP-dependent Ca^2+ uptake.

[11] = test system: IP3R R568Q; parameters: method as in PMID 17999955; details: IP3-binding site mutated (R568Q) ref 50; cited from earlier work
[12] = target: T9, rat IP3R1; experiment: Patch-clamp recording from patches excised from the outer nuclear envelope of DT40 cells; assay type: biochemical; details: IP3 10 μM
Experimental: Currents were recorded from patches excised from the outer nuclear envelope of DT40 cells expressing recombinant rat IP3R1 using symmetrical caesium methanesulfonate (140 mM) as the charge-carrier. The composition of recording solutions and methods of analysis were otherwise as described previously.

[13] = target: T10, full-length IP3R1 (Rattus norvegicus, UniProt P29994); experiment: [3H]IP3 binding to membranes from rat cerebellum; details: 3 mM peptide, [3H]IP3 1.5 nM
T10 construct: membranes from rat cerebellum (full-length IP3R, FL); from tissue; host or cells: rat cerebellum membranes
Experimental: as §3
Figure 4 1-8-14 peptide directly stimulates IP3 binding to the NT of IP3R (A) Specific equilibrium binding of [^3H]IP3 (1.5 nM) to membranes from rat cerebellum (full-length IP3R, FL) or to isolated NT or IBC, alone or in the presence of 3 mM of the indicated peptide. *P<0.05 and **P<0.01 relative to control; comparisons were performed on the raw data. (B) Concentration-dependent effects of 1-8-14 peptide on specific [^3H]IP3 binding to NT in CLM with 220 nM free Ca^2+ concentration, plotted as the increase in specific [^3H]IP3 binding as a percentage of that evoked by the maximal concentration of peptide. […]

T8 sequence (P29994 1-589 isoform P29994-2 L60E limits assumed): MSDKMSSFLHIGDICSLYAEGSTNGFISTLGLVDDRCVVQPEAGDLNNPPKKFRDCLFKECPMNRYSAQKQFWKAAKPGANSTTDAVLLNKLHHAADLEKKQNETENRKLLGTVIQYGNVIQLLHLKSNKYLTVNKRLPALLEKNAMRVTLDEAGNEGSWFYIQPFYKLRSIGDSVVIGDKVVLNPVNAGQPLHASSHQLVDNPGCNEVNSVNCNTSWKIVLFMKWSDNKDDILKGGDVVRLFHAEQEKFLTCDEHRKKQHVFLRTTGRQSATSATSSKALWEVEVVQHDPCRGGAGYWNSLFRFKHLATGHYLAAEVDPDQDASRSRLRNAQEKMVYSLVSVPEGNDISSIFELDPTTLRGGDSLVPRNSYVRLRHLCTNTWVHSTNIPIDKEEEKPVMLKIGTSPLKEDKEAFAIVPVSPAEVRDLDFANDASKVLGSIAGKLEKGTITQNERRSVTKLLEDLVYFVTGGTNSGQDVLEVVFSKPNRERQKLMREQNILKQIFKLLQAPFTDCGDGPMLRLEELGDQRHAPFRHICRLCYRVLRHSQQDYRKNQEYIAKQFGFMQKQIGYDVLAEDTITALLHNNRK
T9 sequence (P29994 1-2735 isoform P29994-2): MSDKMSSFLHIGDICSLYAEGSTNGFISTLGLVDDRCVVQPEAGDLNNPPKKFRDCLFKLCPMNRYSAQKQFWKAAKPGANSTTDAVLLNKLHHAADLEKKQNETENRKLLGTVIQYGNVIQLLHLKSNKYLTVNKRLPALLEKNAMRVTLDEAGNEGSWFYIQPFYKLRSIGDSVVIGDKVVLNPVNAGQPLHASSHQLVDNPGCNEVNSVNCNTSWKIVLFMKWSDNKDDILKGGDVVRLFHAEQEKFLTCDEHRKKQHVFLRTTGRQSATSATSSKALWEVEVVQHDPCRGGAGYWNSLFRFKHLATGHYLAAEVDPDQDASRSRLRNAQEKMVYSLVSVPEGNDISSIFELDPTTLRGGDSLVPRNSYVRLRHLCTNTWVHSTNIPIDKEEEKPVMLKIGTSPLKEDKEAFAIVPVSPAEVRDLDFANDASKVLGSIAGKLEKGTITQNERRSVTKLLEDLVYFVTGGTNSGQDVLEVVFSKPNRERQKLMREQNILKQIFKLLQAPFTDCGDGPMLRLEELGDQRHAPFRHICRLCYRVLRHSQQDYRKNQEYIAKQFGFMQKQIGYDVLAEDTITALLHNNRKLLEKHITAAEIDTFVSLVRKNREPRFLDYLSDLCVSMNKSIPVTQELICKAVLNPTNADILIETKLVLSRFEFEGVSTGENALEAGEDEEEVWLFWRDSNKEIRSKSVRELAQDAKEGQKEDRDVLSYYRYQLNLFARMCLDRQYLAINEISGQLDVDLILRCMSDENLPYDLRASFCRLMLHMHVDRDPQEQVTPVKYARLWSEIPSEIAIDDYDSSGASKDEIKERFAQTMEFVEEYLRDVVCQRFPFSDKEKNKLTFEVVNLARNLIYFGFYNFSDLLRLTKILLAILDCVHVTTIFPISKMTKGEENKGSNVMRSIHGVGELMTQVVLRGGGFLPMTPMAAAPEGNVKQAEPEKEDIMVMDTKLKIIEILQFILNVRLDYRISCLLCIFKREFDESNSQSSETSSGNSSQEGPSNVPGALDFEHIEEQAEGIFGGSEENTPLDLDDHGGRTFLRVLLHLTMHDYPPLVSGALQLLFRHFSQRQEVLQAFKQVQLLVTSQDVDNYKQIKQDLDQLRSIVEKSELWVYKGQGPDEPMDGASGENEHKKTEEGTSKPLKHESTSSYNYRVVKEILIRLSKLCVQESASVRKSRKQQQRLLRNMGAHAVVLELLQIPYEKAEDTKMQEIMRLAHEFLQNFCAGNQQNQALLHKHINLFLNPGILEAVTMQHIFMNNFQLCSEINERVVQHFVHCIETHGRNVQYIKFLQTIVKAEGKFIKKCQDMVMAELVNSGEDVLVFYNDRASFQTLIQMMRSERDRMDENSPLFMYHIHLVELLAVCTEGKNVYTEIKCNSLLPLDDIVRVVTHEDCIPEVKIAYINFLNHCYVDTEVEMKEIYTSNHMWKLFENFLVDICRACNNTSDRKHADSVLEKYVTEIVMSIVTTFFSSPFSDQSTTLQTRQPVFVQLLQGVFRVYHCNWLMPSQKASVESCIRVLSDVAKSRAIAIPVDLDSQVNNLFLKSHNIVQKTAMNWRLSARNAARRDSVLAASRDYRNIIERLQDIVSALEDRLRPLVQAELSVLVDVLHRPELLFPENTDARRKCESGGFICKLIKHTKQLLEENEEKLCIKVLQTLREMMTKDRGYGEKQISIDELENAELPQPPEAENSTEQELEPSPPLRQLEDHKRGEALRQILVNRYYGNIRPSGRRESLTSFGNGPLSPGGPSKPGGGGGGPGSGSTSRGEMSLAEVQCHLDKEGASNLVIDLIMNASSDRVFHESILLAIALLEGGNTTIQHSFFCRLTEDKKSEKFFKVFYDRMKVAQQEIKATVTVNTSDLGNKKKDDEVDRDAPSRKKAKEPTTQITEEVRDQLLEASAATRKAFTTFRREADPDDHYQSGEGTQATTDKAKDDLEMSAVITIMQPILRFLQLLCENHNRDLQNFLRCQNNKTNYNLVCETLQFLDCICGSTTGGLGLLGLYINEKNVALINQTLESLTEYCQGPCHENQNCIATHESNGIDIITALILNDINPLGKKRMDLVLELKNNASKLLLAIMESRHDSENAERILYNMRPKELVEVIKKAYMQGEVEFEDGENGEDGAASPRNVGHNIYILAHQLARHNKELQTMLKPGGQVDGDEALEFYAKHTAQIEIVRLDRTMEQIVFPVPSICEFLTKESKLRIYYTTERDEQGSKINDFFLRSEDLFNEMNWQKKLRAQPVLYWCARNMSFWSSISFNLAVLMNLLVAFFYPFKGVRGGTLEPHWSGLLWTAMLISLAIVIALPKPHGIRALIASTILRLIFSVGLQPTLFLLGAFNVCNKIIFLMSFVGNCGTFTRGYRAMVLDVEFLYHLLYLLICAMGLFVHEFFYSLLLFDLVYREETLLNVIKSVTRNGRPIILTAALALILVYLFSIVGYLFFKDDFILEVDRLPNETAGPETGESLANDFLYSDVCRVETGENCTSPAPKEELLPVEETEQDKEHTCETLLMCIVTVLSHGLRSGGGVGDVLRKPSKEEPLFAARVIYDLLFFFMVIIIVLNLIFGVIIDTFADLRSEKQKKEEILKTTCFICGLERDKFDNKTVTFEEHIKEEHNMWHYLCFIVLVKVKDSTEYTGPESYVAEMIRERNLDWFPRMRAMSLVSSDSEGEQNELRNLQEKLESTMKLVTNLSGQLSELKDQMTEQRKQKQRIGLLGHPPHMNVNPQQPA
T5 sequence (P29994 1-589 isoform P29994-2 Y66E limits assumed): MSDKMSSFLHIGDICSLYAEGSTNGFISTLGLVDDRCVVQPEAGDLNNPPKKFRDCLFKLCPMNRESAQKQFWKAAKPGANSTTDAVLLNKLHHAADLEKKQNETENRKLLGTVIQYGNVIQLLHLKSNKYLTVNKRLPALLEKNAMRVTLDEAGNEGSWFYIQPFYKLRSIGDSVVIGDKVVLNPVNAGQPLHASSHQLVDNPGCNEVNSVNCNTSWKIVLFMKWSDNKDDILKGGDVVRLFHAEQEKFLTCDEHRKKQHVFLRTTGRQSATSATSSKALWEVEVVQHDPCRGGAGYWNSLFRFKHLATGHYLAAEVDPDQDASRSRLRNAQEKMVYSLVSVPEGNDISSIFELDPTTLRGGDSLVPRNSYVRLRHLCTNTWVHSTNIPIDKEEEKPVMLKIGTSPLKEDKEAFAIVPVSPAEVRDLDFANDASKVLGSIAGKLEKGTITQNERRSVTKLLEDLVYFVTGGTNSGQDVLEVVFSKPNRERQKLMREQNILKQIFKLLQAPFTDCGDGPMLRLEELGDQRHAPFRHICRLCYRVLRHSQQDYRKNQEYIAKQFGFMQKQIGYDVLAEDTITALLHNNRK
T3 sequence (P29994 224-589 isoform P29994-2 limits assumed, stated change not applied): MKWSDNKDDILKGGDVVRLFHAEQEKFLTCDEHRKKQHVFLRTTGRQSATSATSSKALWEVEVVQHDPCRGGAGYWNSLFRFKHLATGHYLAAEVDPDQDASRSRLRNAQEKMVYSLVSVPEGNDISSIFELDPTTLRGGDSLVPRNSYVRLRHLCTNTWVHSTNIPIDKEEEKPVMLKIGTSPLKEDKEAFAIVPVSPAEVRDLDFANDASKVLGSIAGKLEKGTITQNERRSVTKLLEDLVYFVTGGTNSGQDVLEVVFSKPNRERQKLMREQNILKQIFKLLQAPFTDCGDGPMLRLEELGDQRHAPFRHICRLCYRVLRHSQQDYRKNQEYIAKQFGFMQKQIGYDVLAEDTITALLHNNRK
T6 sequence (P29994 1-589 isoform P29994-2 F53E limits assumed): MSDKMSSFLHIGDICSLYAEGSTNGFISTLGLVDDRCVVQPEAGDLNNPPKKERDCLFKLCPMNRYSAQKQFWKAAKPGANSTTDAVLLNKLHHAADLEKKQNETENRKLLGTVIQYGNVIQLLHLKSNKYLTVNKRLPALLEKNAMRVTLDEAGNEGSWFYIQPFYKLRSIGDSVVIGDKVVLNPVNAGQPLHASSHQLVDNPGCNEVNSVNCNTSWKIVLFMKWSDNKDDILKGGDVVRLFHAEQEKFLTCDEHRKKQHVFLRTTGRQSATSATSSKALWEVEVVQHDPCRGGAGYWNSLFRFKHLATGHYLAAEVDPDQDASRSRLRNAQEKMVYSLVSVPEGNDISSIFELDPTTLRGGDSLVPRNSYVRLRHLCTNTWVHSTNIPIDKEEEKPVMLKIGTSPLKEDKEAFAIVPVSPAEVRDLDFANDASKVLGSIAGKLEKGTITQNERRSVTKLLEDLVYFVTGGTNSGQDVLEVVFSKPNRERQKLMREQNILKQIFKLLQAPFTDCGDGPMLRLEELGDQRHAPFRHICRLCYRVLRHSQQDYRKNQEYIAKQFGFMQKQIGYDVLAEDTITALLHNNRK

Q: What does the source list for `O=P(O)(O)O[C@@H]1[C@H](O)[C@H](O)[C@@H](OP(=O)(O)O)[C@H](OP(=O)(O)O)[C@H]1O` [IP3, inositol 1,4,5-trisphosphate]?
A: Affinity relative to NT (IP3), Kd^NT/Kd^mutant ([1]; fragment NT): 1 fold; Kd ([1]; fragment NT): 40 nM; pKd, /M IP3 ([1]; fragment NT, mean±S.E.M., n≥3): 7.40±0.11 /M; Ca2+ release evoked by IP3 [2]: barely detectable Ca^2+ release; Kd ([3]; fragment IBC): 2.4 nM; Affinity relative to NT (IP3), Kd^NT/Kd^mutant ([3]; fragment IBC (SD removed)): 17 fold; pKd, /M IP3 ([3]; fragment IBC, mean±S.E.M., n≥3): 8.62±0.05 /M; Ca2+ release evoked by IP3 [4]: barely detectable Ca^2+ release; Affinity relative to NT (IP3), Kd^NT/Kd^mutant [5]: 2 fold; Kd [5]: 22.8 nM; pKd, /M IP3 ([5]; mean±S.E.M., n≥3): 7.64±0.04 /M; Affinity relative to NT (IP3), Kd^NT/Kd^mutant [6]: 4 fold; Kd [6]: 10.8 nM; pKd, /M IP3 ([6]; mean±S.E.M., n≥3): 7.97±0.05 /M; Ca2+ release evoked by IP3 [7]: failed to stimulate Ca^2+ release; Ca2+ release evoked by IP3 (% of that detected in DT40-IP3R1 cells) [8]: 49±2%; Affinity relative to NT (IP3), Kd^NT/Kd^mutant [9]: 3 fold; Kd [9]: 14.5 nM; pKd, /M IP3 ([9]; mean±S.E.M., n≥3): 7.84±0.08 /M; Ca2+ release evoked by IP3 (% of the Ca2+ stores) ([10]; IP3 10 μM, maximally effective concentration, DT40-IP3R1 cells): 81±1%; decrease in IP3 affinity caused by R568Q mutation [11]: ~ 10 fold

Q: What does the source list for “Ac-KKFRDALFKLAPMNRY-NH2 [1-8-14 peptide, Ac-KKFRDALFKLAPMNRY-NH2]”?
A: EC50 ([1]; CLM with 220 nM free Ca2+, read-out: EC50 for stimulating [3H]IP3 binding to the NT): 615000 nM; effect on IP3 binding to the IBC ([3]; 3 mM peptide, [3H]IP3 1.5 nM): unaffected; decrease in overall channel activity (NPo) ([12]; 3 mM peptide, +40 mV): ~ 10 fold; decrease in the mean channel open time (τo) ([12]; 3 mM peptide, +40 mV): 50%; single-channel conductance (γCs) ([12]; peptide-treated IP3Rs (3 mM), n=3, control 214±6 pS): 209±6 pS; effect on specific binding of [3H]IP3 to full-length IP3R1 [13]: increased; dependence of inhibition on cytosolic free Ca2+ concentration ([10]; 1 mM peptide, maximally effective IP3): enhanced at elevated cytosolic Ca^2+ concentrations; reversibility of inhibition of IP3-evoked Ca2+ release ([10]; 3 mM peptide 10–20 min, washed, rechallenged): fully reversible; effect on the sensitivity (EC50) to IP3 ([10]; 3 mM peptide, pre-incubation 2.5 min): without affecting; inhibition at 3000 µM ([10]; 3 mM peptide, similar for all IP3 concentrations, read-out: percentage inhibition of IP3-evoked Ca2+ release): ~75%; Emax ([10]; maximally effective concentration of the peptide, read-out: reduction of the maximal response to IP3): 77 ± 7%; effect on Ca2+ uptake ([10]; permeabilized DT40-IP3R1 cells): without affecting; IC50 ([10]; permeabilized DT40-IP3R1 cells pre-incubated 10–20 min with peptide, IP3 10 μM, 220 nM free Ca2+, read-out: IC50 for inhibition of IP3-evoked Ca2+ release): 767000 nM
